In patent US12133855B2, “Lipid-like nanocomplexes and uses thereof” (Trustees of Tufts College, priority 2018, dated 2024):

How the values were obtained:
[1] = Thiol-triggered calcein release (fluorescence dequenching); assay type: physicochemical; conditions: DTT 1 mM, 5 mM and 10 mM, 12 h incubation
Procedure: Lipidoids were fabricated into nanoparticles for all delivery applications. Briefly, lipidoids were mixed with sodium acetate buffer (25 mM, pH 5.2), sonicated for 30 min in an ultrasonic bath, followed by another 30 min of vigorous vortexing. The as-prepared blank LNPs were stored at 4° C. For Cy5-RNA/LNP, mRNA/LNP and protein/LNP complexation, blank lipidoid nanoparticles were mixed with RNA molecules or (−30)GFP-Cre protein in PBS buffer (pH 7.4) following our previously reported procedures and incubated at room temperature for another 30 min before use. Typical procedures for Nile red encapsulation are as follows: 5 μL of Nile red stock solution in acetone was added into an empty vial, which was then placed in a vacuum oven to completely remove the organic solvent. Then, a predetermined amount of blank LNP stock solution (1.0 mg/mL) was added into the vial. The mixture was sonicated for 40 min in an ultrasonic bath and stirred overnight at room temperature. The final concentration of Nile red was adjusted to 6.6×10-7 mol L-1 and 6×10-7 mol L-1 for thiol triggered release study and cell incubation, respectively, by diluting with PBS as necessary. Typical procedures for CPT and DiO/DiI FRET pair encapsulation are as follows: 100 μL of DiO/DiI stock solution in MeOH was charged into an empty vial and placed in a vacuum oven to remove the organic solvent. […]

Ai14 mice = experiment: In vivo genome editing, intramuscular injection, tdTomato expression; design: species or system mouse; conditions: single IM dose, day 10
Procedure: Similar to the in vitro transfection study, lipidoid nanoparticles were prepared for mRNA or protein loading and in vivo delivery. Ai14 mice were housed in a temperature and humidity controlled facility with a 12 h light/dark cycle. Three mice in each group were injected (intravenously or intramuscularly) with Cre mRNA-loaded or (−30)GFP-Cre protein-loaded LNPs formulations. Organs including heart, liver, spleen, lung and kidney from all groups were collected at day 10 (intramuscular injection) or 14 (intravenous injection) after injection. The tissues were fixed overnight in 4% paraformaldehyde (PFA) and dehydrated in 30% sucrose before being froze in OCT and sectioned into 10-15 μm slices. The slices were then collected and stained with DAPI for fluorescence imaging (BZ-X Analyzer fluorescence microscopy).
Cre-loxP system and transgenic Ai14 mouse model were used in the in vivo genome editing study. […] When the Cre recombinase mediated gene reorganization occurs, the STOP cassette could be removed, resulting in the expression of fluorescent tdTomato reporter protein.
Local delivery through intramuscular injection (IM injection; rear leg) using (−30)GFP-Cre protein and Cre mRNA loaded 76-OCholB LNPs (FIG. 17B). Ai14 mice (n=3) received single dose of (−30)GFP-Cre/LNPs (50 μg of protein) or mRMA/LNPs (10 μg of mRNA) injection at day 1 and were sacrificed at day 10. […]

CCN(CC)CCN(CCC(=O)OCCSSCCNC(=O)OC1CCC2(C)C(=CCC3C2CCC2(C)C(C(C)CCCC(C)C)CCC32)C1)CCC(=O)OCCSSCCNC(=O)OC1CCC2(C)C(=CCC3C2CCC2(C)C(C(C)CCCC(C)C)CCC32)C1 (stereo not drawn) [Lipidoid 75-OCholB]
increase of calcein fluorescence intensity vs untreated and cysteine treated LNPs [1]: 4.7-6.4 folds

CC(C)CCCC(C)C1CCC2C3CC=C4CC(OC(=O)NCCSSCCOC(=O)CCN(CCC(=O)OCCSSCCNC(=O)OC5CCC6(C)C(=CCC7C6CCC6(C)C(C(C)CCCC(C)C)CCC76)C5)CCN5CCCC5)CCC4(C)C3CCC12C (stereo not drawn) [Lipidoid 76-OCholB]
tdTomato fluorescent signals in skeletal muscle (Ai14 mice; (−30)GFP-Cre protein loaded, 50 μg protein): strong tdTomato fluorescent signals
tdTomato fluorescent signals in skeletal muscle (Ai14 mice; Cre mRNA loaded, 10 μg mRNA): strong tdTomato fluorescent signals
